Publication PMC11864979, “First-in-class ultralong-target-residence-time p38α inhibitors as a mitosis-targeted therapy for colorectal cancer” (Nature Cancer, 2025)
Where two headings read alike, the source gives them in different places.

Assays:
Experiment in all cases: selectivity profiling in a panel of 340 wild-type kinases (Reaction Biology Europe)
Format in all cases: binding
340 wild-type kinases [1] = biological target: T1, 340 wild-type kinases (Homo sapiens, UniProt O15111)
T1 construct: purchased Reaction Biology Europe
T1 sequence (O15111 1-745): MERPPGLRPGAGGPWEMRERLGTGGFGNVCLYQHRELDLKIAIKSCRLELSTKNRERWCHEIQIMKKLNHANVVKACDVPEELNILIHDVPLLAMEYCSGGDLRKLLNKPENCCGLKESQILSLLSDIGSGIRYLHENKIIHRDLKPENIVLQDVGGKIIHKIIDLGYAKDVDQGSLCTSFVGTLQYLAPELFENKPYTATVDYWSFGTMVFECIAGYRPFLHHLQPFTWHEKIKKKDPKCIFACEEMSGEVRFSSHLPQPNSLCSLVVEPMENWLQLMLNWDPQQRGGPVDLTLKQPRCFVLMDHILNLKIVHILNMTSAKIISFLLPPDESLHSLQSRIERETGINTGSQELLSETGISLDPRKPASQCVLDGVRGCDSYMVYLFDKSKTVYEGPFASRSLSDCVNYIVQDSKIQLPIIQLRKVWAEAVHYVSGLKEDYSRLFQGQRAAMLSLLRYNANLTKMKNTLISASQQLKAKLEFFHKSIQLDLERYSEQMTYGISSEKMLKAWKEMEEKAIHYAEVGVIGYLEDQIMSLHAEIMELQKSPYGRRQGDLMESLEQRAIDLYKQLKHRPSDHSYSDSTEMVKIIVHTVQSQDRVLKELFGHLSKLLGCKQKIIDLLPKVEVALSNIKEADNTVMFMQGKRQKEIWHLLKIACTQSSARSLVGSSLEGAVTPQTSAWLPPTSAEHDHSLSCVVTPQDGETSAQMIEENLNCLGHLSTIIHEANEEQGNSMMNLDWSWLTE

340 wild-type kinases [2] = biological target: T2, 340 wild-type kinases (Homo sapiens, UniProt P08581)
T2 construct: purchased Reaction Biology Europe
T2 sequence (P08581 25-1390): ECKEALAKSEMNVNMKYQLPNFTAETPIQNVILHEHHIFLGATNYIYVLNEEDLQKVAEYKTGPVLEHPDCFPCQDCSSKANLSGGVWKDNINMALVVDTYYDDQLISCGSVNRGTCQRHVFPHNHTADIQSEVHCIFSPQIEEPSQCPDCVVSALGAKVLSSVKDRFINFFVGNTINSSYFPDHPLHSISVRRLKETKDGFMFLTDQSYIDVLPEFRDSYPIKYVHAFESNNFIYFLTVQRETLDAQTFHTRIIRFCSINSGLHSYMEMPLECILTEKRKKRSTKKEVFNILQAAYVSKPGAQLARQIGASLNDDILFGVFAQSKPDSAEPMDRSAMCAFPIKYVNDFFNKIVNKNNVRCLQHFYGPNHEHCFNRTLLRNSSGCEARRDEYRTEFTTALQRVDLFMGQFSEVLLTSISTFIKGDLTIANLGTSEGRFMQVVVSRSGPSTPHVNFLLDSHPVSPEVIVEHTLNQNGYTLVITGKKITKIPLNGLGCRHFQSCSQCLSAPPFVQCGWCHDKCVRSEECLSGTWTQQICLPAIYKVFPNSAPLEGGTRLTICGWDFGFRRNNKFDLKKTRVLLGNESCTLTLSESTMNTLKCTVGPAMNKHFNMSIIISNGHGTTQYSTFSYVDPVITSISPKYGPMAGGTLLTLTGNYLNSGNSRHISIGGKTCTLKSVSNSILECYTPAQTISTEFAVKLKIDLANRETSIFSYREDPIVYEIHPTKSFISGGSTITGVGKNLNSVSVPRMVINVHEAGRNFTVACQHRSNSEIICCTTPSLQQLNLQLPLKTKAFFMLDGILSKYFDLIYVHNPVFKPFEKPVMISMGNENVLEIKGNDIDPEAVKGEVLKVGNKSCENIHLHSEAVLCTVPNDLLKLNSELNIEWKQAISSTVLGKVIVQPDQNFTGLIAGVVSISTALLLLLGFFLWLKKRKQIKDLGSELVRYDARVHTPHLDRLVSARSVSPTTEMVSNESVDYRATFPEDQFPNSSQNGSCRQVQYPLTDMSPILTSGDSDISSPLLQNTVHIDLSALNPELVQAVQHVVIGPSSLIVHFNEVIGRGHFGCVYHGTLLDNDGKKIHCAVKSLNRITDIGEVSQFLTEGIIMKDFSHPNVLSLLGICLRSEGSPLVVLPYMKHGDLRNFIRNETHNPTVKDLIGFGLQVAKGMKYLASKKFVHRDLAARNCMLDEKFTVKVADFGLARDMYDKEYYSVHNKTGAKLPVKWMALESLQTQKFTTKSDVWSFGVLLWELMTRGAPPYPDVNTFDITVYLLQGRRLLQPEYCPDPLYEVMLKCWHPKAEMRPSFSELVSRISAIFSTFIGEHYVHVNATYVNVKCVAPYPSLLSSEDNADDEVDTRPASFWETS

340 wild-type kinases [3] = biological target: T3, 340 wild-type kinases (Homo sapiens, UniProt P22607)
T3 construct: purchased Reaction Biology Europe
T3 sequence (P22607 23-806): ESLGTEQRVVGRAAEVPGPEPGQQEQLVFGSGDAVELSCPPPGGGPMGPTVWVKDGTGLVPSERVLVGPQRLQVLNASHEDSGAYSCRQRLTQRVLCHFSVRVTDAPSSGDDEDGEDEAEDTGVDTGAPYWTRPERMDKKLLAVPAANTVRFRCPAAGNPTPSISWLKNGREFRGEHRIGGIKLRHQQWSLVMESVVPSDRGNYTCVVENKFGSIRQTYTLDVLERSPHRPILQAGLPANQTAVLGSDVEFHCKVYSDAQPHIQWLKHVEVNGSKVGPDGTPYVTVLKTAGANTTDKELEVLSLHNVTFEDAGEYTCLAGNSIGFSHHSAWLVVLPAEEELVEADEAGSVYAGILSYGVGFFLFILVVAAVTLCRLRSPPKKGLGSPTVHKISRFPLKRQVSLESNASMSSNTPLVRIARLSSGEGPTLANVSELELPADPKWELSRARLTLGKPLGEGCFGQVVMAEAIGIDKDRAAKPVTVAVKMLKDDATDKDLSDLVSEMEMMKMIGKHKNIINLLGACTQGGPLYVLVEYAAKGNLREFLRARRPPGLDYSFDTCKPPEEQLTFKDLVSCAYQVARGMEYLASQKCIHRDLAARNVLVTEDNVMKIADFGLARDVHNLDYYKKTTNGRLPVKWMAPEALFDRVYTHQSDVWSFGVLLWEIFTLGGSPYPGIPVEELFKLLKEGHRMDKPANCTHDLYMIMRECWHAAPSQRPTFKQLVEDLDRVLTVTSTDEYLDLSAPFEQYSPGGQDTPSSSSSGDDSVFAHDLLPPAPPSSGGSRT

340 wild-type kinases [4] = biological target: T4, 340 wild-type kinases (Homo sapiens, UniProt P27448)
T4 construct: purchased Reaction Biology Europe
T4 sequence (P27448 whole entry): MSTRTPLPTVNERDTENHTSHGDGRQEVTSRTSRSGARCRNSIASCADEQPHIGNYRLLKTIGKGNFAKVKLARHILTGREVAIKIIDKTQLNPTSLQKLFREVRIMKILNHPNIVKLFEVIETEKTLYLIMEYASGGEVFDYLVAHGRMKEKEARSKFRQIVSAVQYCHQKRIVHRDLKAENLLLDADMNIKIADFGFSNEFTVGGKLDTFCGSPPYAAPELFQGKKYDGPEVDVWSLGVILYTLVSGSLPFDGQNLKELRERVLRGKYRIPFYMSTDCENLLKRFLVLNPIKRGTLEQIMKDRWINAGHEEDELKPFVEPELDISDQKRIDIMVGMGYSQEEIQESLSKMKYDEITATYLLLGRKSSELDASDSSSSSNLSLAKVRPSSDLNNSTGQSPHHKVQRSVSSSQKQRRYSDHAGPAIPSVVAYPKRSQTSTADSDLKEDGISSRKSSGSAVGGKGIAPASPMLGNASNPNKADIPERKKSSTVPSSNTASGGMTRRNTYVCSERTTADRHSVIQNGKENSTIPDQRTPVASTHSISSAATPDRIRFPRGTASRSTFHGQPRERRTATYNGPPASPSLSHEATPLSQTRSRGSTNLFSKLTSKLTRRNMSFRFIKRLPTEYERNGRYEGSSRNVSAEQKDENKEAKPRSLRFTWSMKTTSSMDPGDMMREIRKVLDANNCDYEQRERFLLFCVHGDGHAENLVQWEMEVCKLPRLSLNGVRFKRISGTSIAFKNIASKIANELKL

340 wild-type kinases [5] = biological target: T5, 340 wild-type kinases (Homo sapiens, UniProt Q13976)
T5 construct: purchased Reaction Biology Europe
T5 sequence (Q13976 1-671): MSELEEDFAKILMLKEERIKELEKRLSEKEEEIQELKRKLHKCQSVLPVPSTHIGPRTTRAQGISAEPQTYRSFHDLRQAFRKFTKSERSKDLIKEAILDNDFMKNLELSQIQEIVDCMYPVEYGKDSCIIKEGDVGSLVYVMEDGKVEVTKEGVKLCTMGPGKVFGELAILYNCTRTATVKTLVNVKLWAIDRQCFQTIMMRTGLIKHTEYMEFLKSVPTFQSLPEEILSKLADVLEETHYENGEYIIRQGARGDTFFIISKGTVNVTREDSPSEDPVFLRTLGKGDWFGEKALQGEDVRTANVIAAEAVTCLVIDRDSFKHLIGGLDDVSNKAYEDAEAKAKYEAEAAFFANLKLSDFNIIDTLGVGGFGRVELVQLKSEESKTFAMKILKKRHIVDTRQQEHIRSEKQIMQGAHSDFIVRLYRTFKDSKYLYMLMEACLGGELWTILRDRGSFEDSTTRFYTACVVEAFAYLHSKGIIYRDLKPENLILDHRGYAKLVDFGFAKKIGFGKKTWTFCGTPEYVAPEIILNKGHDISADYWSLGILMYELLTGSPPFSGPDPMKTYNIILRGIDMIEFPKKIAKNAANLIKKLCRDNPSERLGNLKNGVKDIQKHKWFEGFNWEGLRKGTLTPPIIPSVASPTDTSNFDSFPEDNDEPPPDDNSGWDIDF

340 wild-type kinases [6] = biological target: T6, 340 wild-type kinases (Homo sapiens, UniProt Q86Y07)
T6 construct: purchased Reaction Biology Europe
T6 sequence (Q86Y07 whole entry): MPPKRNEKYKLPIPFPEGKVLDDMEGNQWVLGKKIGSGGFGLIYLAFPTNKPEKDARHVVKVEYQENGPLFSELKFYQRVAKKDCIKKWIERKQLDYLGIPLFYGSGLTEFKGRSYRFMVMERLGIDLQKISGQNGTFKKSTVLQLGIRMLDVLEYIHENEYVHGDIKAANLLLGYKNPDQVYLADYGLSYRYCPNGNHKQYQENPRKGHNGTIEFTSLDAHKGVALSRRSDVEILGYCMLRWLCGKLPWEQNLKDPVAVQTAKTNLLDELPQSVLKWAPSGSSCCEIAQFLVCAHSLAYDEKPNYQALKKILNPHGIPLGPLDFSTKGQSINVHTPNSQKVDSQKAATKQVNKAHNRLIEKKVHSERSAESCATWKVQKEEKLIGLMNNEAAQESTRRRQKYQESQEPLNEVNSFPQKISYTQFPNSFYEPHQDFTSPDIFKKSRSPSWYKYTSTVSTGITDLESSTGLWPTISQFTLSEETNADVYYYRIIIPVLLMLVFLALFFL

340 wild-type kinases [7] = biological target: T7, 340 wild-type kinases (Homo sapiens, UniProt Q96PF2)
T7 construct: purchased Reaction Biology Europe
T7 sequence (Q96PF2 1-358): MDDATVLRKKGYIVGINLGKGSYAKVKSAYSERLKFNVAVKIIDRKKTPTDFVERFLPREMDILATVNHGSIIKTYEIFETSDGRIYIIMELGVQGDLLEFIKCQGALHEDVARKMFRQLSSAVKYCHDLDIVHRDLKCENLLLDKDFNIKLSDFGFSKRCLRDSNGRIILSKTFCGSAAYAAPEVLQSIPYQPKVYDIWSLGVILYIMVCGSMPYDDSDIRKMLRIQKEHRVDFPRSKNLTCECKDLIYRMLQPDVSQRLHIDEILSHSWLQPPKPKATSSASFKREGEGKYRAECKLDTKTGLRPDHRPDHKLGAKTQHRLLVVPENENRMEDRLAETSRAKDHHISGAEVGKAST

## CNC(=O)c1ccc2c(c1)C(=O)c1ccc(Nc3ccc(F)c(NC(=O)C4CC4)c3)cc1CC2 [Compound 2015]
340 wild-type kinases [1]; 0.2 µM 2015, read-out: IKKalpha residual activity
  remaining activity at 0.2 µM: 97.6%
340 wild-type kinases [1]; 1 µM 2015, read-out: IKKalpha residual activity
  remaining activity at 1 µM: 92%
340 wild-type kinases [1]; IKKalpha, 0.2 µM, read-out: residual activity
  remaining activity at 0.2 µM: 97.6%
340 wild-type kinases [1]; IKKalpha, 1 µM, read-out: residual activity
  remaining activity at 1 µM: 92%
340 wild-type kinases [2]; 0.2 µM 2015, read-out: MET residual activity
  remaining activity at 0.2 µM: 96.7%
340 wild-type kinases [2]; 1 µM 2015, read-out: MET residual activity
  remaining activity at 1 µM: 93.5%
340 wild-type kinases [2]; MET, 0.2 µM, read-out: residual activity
  remaining activity at 0.2 µM: 96.7%
340 wild-type kinases [2]; MET, 1 µM, read-out: residual activity
  remaining activity at 1 µM: 93.5%
340 wild-type kinases [3]; 0.2 µM 2015, read-out: FGFR3 residual activity
  remaining activity at 0.2 µM: 109%
340 wild-type kinases [3]; 1 µM 2015, read-out: FGFR3 residual activity
  remaining activity at 1 µM: 97.1%
340 wild-type kinases [3]; FGFR3, 0.2 µM, read-out: residual activity
  remaining activity at 0.2 µM: 109%
340 wild-type kinases [3]; FGFR3, 1 µM, read-out: residual activity
  remaining activity at 1 µM: 97.1%
340 wild-type kinases [4]; 0.2 µM 2015, read-out: MARK3 residual activity
  remaining activity at 0.2 µM: 117%
340 wild-type kinases [4]; 1 µM 2015, read-out: MARK3 residual activity
  remaining activity at 1 µM: 100%
340 wild-type kinases [4]; MARK3, 0.2 µM, read-out: residual activity
  remaining activity at 0.2 µM: 117%
340 wild-type kinases [4]; MARK3, 1 µM, read-out: residual activity
  remaining activity at 1 µM: 100%
340 wild-type kinases [5]; 0.2 µM 2015, read-out: PRKG1 residual activity
  remaining activity at 0.2 µM: 106%
340 wild-type kinases [5]; 1 µM 2015, read-out: PRKG1 residual activity
  remaining activity at 1 µM: 104%
340 wild-type kinases [5]; PRKG1, 0.2 µM, read-out: residual activity
  remaining activity at 0.2 µM: 106%
340 wild-type kinases [5]; PRKG1, 1 µM, read-out: residual activity
  remaining activity at 1 µM: 104%
340 wild-type kinases [6]; 0.2 µM 2015, read-out: VRK2 residual activity
  remaining activity at 0.2 µM: 115%
340 wild-type kinases [6]; 1 µM 2015, read-out: VRK2 residual activity
  remaining activity at 1 µM: 118%
340 wild-type kinases [6]; VRK2, 0.2 µM, read-out: residual activity
  remaining activity at 0.2 µM: 115%
340 wild-type kinases [6]; VRK2, 1 µM, read-out: residual activity
  remaining activity at 1 µM: 118%
340 wild-type kinases [7]; 0.2 µM 2015, read-out: TSK2 residual activity
  remaining activity at 0.2 µM: 104%
340 wild-type kinases [7]; 1 µM 2015, read-out: TSK2 residual activity
  remaining activity at 1 µM: 106%
340 wild-type kinases [7]; TSK2, 0.2 µM, read-out: residual activity
  remaining activity at 0.2 µM: 104%
340 wild-type kinases [7]; TSK2, 1 µM, read-out: residual activity
  remaining activity at 1 µM: 106%
